Experimental data taken from PubChem BioAssay AID2060500 (Molecular Pharmacology Branch, DTP, NCI, 2025).
pIC50: −log10 of the molar value.

Tested on: 596521-263-R-J1-PDC complex spheroids, viability % of control
Test: Anticancer human tumor 596521-263-R-J1-PDC patient-derived soft tissue sarcoma cell line growth inhibition [GQUAD]
Details: for pIC50: curve of first compound; for viability, T/C: stronger effect = lower value
Description: DNA G-quadruplex Stabilizer Agents in Combinations in Complex Spheroids
A high-throughput screen of multi-cell type tumor spheroids was designed to identify active combinations of DNA G-quadruplex stabilizer agents and targeted small molecules. Complex spheroids include a stromal component modeled by human endothelial cells (HUVEC) and fibroblasts modeled by human mesenchymal stem cells (MSCs). The concentration ranges selected for each drug and investigational agent were based upon clinically achievable concentrations if the clinical Cmax of the agent was known.
Compounds. The drugs and investigational agents: pidnarulex (CX-5461; NSC782164), APTO-253 (NSC789042), BRACO-19 (NSC847499), peposertib (NSC802822), ceralasertib (NSC780249), elimusertib (NSC800525), camonsertib (NSC841442), AZD-1390 (NSC803789), olaparib (NSC753686), talazoparib (NSC767125), ART-558 (NSC835418), sotorasib (NSC818433), MRTX-1133 (NSC836407), SN-38 (NSC673596), topotecan (NSC609699), etoposide (NSC141540), doxorubicin (NSC123127), gemcitabine (NSC613327), 5-fluorouracil (NSC19893), paclitaxel (NSC125973), vemurafenib (NSC761431), panobinostat (NSC761190), R-306465 (JNJ-16241199; NSC773264), adavosertib (NSC754352), TP-3654 (NSC805149), carboplatin (NSC241240), KSQ-4279 (NSC840948), and staurosporine (NSC755774) were obtained from the National Cancer Institute (NCI) Developmental Therapeutics Program Chemical Repository (34). The FDA-approved anticancer drug set is available from the NCI Developmental Therapeutics Program. […] The stock solutions were prepared in dimethyl sulfoxide (DMSO, Sigma-Aldrich, St. Louis, MO, cat. D2650) at 800-fold the tested concentration and stored at -70 degrees C prior to their use. All drugs and investigational agents were tested over a range starting from a high concentration at or near the clinical Cmax and decreasing in half-log increments. If the clinical Cmax for an agent had not been determined, the highest concentration tested was 10 microM.
2.3 Cell Culture. All cells were maintained in an incubator at 37 degrees C and 5% CO2 with 95% humidity. The PDC lines were cultured according to standard operating procedures established by the NCI PDMR. All PDCs were thawed and cultured in Matrigel-coated flasks prepared with a working solution of 1X Ham's F-12 nutrient mix, without supplementation (Invitrogen, cat. 11765054), 100 U/mL penicillin-streptomycin (Invitrogen, cat. 15140122), and 2.5% Matrigel (Corning Inc., cat. 354248) for the first three passages. The 857933-349-R-J2-PDC line was cultured in 6C/Colon 1B media, which includes advanced DMEM/F-12 (Thermo Fisher Scientific, cat. 12634028), 10 mM HEPES (Thermo Fisher Scientific, cat. 15630080), 1X GlutaMAX supplement (Thermo Fisher Scientific, cat. 35050061), 0.1 mg/mL primocin (InvivoGen, cat. ant-pm-2), 10% defined fetal bovine serum, heat inactivated (HyClone Laboratories Inc., cat. SH30070.03HI), 50% L-WRN conditioned media (ATCC, cat. CRL-3276), 1.25 mM N-Acetyl-L-cysteine (Sigma-Aldrich, cat. A9165), 10 mM nicotinamide (Sigma-Aldrich, cat. N0636), 1X B-27 supplement (Thermo Fisher Scientific, cat. 17504044), 1X N-2 supplement (Thermo Fisher Scientific, cat. 17502048), 10 microM Y-27632 dihydrochloride (Tocris Bioscience, cat. 1254), and 50 ng/mL human EGF recombinant protein (Thermo Fisher Scientific, cat. PHG0311). The 485176-168-R4-J1-PDC line was cultured in Panc media, which includes all 6C/Colon 1B media components plus 100 ng/mL human FGF-10 (Thermo Fisher Scientific, cat. 100-26), 500 nM SB-431542 (Selleckchem, cat. S1067), and gastrin (Tocris, cat. 3006).
[…]

[1] = second compound 0.0316 µM, first compound 0.0316 µM
[2] = second compound 0.0316 µM, first compound 0.1 µM
[3] = second compound 0.0316 µM, first compound 0.316 µM
[4] = second compound 0.0316 µM, first compound 1 µM
[5] = second compound 0.0316 µM, first compound 3.16 µM
[6] = second compound 0.0316 µM, first compound 10 µM
[7] = second compound 0.1 µM, first compound 0.0316 µM
[8] = second compound 0.1 µM, first compound 0.1 µM
[9] = second compound 0.1 µM, first compound 0.316 µM
[10] = second compound 0.1 µM, first compound 1 µM
[11] = second compound 0.1 µM, first compound 3.16 µM
[12] = second compound 0.1 µM, first compound 10 µM
[13] = second compound 0.316 µM, first compound 0.0316 µM
[14] = second compound 0.316 µM, first compound 0.1 µM
[15] = second compound 0.316 µM, first compound 0.316 µM
[16] = second compound 0.316 µM, first compound 1 µM
[17] = second compound 0.316 µM, first compound 3.16 µM
[18] = second compound 0.316 µM, first compound 10 µM
[19] = second compound 1 µM, first compound 0.0316 µM
[20] = second compound 1 µM, first compound 0.1 µM
[21] = second compound 1 µM, first compound 0.316 µM
[22] = second compound 1 µM, first compound 1 µM
[23] = second compound 1 µM, first compound 3.16 µM
[24] = second compound 1 µM, first compound 10 µM
[25] = second compound 3.16 µM, first compound 0.0316 µM
[26] = second compound 3.16 µM, first compound 0.1 µM
[27] = second compound 3.16 µM, first compound 0.316 µM
[28] = second compound 3.16 µM, first compound 1 µM
[29] = second compound 3.16 µM, first compound 3.16 µM
[30] = second compound 3.16 µM, first compound 10 µM
[31] = second compound 10 µM, first compound 0.0316 µM
[32] = second compound 10 µM, first compound 0.1 µM
[33] = second compound 10 µM, first compound 0.316 µM
[34] = second compound 10 µM, first compound 1 µM
[35] = second compound 10 µM, first compound 3.16 µM
[36] = second compound 10 µM, first compound 10 µM
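Further: spheroids exposed to drugs for 7 days before viability reading.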

Cc1cccc(N(C)C(=O)C2C(O)CCN2c2nc(C)cc(C(F)(F)F)c2C#N)c1 (centres undefined) + CN(C)c1ccc(Nc2c3ccc(NC(=O)CCN4CCCC4)cc3nc3cc(NC(=O)CCN4CCCC4)ccc23)cc1
pIC50 (second compound 0.0316 µM): < 5.00 | pIC50 (second compound 0.1 µM): < 5.00 | pIC50 (second compound 0.316 µM): < 5.00 | pIC50 (second compound 1 µM): < 5.00 | pIC50 (second compound 3.16 µM): < 5.00 | pIC50 (second compound 10 µM): < 5.00 | viability, T/C [1]: 108% | viability, T/C [2]: 99% | viability, T/C [3]: 89.8% | viability, T/C [4]: 94.1% | viability, T/C [5]: 101% | viability, T/C [6]: 101% | viability, T/C [7]: 118% | viability, T/C [8]: 95.7% | viability, T/C [9]: 91.6% | viability, T/C [10]: 109% | viability, T/C [11]: 95.5% | viability, T/C [12]: 109% | viability, T/C [13]: 102% | viability, T/C [14]: 102% | viability, T/C [15]: 100% | viability, T/C [16]: 115% | viability, T/C [17]: 113% | viability, T/C [18]: 102% | viability, T/C [19]: 90.6% | viability, T/C [20]: 103% | viability, T/C [21]: 105% | viability, T/C [22]: 105% | viability, T/C [23]: 97.6% | viability, T/C [24]: 88% | viability, T/C [25]: 88% | viability, T/C [26]: 98.1% | viability, T/C [27]: 95.8% | viability, T/C [28]: 91% | viability, T/C [29]: 85.9% | viability, T/C [30]: 87.7% | viability, T/C [31]: 62.7% | viability, T/C [32]: 63.6% | viability, T/C [33]: 72.9% | viability, T/C [34]: 63.7% | viability, T/C [35]: 58.8% | viability, T/C [36]: 47.8%

O=C(c1cc(Cc2n[nH]c(=O)c3ccccc23)ccc1F)N1CCN(C(=O)C2CC2)CC1 + Cc1[nH]c2ccc(F)cc2c1-c1nc2c3cccnc3c3ncccc3c2[nH]1
pIC50 (second compound 0.0316 µM): < 5.00 | pIC50 (second compound 0.1 µM): < 5.00 | pIC50 (second compound 0.316 µM): < 5.00 | pIC50 (second compound 1 µM): < 5.00 | pIC50 (second compound 3.16 µM): < 5.00 | pIC50 (second compound 10 µM): < 5.00 | viability, T/C [1]: 97.8% | viability, T/C [2]: 97.8% | viability, T/C [3]: 98.6% | viability, T/C [4]: 85.8% | viability, T/C [5]: 89.8% | viability, T/C [6]: 69.8% | viability, T/C [7]: 91.6% | viability, T/C [8]: 83.3% | viability, T/C [9]: 88.3% | viability, T/C [10]: 94.7% | viability, T/C [11]: 76.8% | viability, T/C [12]: 66.2% | viability, T/C [13]: 95% | viability, T/C [14]: 105% | viability, T/C [15]: 91.8% | viability, T/C [16]: 104% | viability, T/C [17]: 78.5% | viability, T/C [18]: 66.3% | viability, T/C [19]: 104% | viability, T/C [20]: 87.9% | viability, T/C [21]: 94.7% | viability, T/C [22]: 85.2% | viability, T/C [23]: 91.4% | viability, T/C [24]: 65.5% | viability, T/C [25]: 94% | viability, T/C [26]: 83.3% | viability, T/C [27]: 88.4% | viability, T/C [28]: 80.8% | viability, T/C [29]: 75.4% | viability, T/C [30]: 57.2% | viability, T/C [31]: 77.4% | viability, T/C [32]: 73.7% | viability, T/C [33]: 75.8% | viability, T/C [34]: 66.2% | viability, T/C [35]: 72.6% | viability, T/C [36]: 58.5%
